# Measurements from patent US20040009485A1, “Cellular arrays for the identification of altered gene expression” (priority 2002, published 2004).
# Values joined by “and” are separate entries in the source; they are usually repeats but may differ in a detail not shown here. Equal entries are not always repeated. Where two headings read alike, the source gives them in different places.
# Tests used:
# [1] = tested on: OxyR regulon gene fusions (ahpC-luxCDABE); conditions: for H2O2 response ratio: ahpC fusion, 0.002% hydrogen peroxide, 30 minutes, LB
# Protocol: (§1) To test the stress responses, one or two single colonies of each selected strain were used to inoculate 5.0 ml of LB medium containing 150 μg/ml of ampicillin. These cultures were grown overnight at 37° C. then diluted by adding 50 μl or 100 μl of the overnight culture into 10.0 ml of fresh LB medium (without ampicillin) and grown with agitation at 37° C. until the culture was in exponential phase with readings on a Klett-Summerson colorimeter containing the red filter of between 10 and 40. These actively growing cultures were immediately used to initiate a stress response experiment by adding 50 μl of cultures to 50 μl of LB medium containing various concentrations of chemical in the wells a 96 well luminometer plate. This division of the actively growing culture at the time of chemical addition ensured identical populations were present when the stress was imposed. Light production was measured in a Dynex ML3000 luminometer at 37° C. The dimensionless units of light production, relative light units (RLU), are obtained by comparison with the light reading from an internal light-emitting diode. The cycle mode of the ML3000 luminometer, similar to previous descriptions (Van Dyk et al., Appl. Environ. Microbiol. 60:1414-120) was used.
# To test if these strains would report on activation of the OxyR-controlled oxidative stress response, each was treated with hydrogen peroxide at 0.016, 0.008, 0.004, 0.002, 0.001, 0.0005, 0.00025%.
# [2] = tested on: ahpC-luxCDABE fusions in E. coli host strain DPD2228 (pcnB80); conditions: for H2O2 response ratio in pcnB- host: 0.002% hydrogen peroxide, 30 minutes, LB
# Protocol: as §1
# [3] = tested on: heat shock regulon gene fusions; experiment: Stress response of heat shock regulon luxCDABE gene fusions (ethanol); format: cell-based, E. coli; conditions: for 3% Ethanol Response ratio: 40 minutes, LB, treated/untreated
# Protocol: as §1, with “used. […]” for “used.”
# SOS regulon gene fusions = experiment: Stress response of SOS regulon luxCDABE gene fusions (nalidixic acid); format: cell-based, E. coli; conditions: SOS regulon gene fusions; 5, 4, or 3% (v/v) ethanol
# Protocol: as §1
# The ability of these promoter-luxCDABE fusions to report activation of the SOS stress response was tested using nalidixic acid, a known, potent chemical inducer. The final concentrations of nalidixic acid were 1, 5, 25, and 125 μg/ml for all but strain DPD2293, which was tested at 80, 40, 20, 10, 5, 2.5, and 1.25 μg/ml.
# Specificity of responses was tested by measuring the effect of ethanol on these SOS regulon gene fusions.
# [4] = tested on: clpB-luxCDABE gene fusion; conditions: 38 min; for Response Ratio: 4% ethanol; for Light production in LB + 4% ethanol: 37° C.
# Protocol: Plasmid DNA was isolated from lux-a.pk043.d3, digested with restriction enzyme XmaI, and ligated with T4 DNA ligase. The ligation reaction was used to transform E. coli strain DPD1675 by electroporation. Transformants were selected by ampicillin resistance. […] Actively growing cultures at 37° C. in LB medium were treated with 4% ethanol arid light production was quantitated at 37° C. using a microplate luminometer (Dynex ML3000). Table 17 summarizes the average bioluminescence of duplicate samples at 38 min after treatment.
# [5] = tested on: luxCDABE gene fusions of the Lux-A Collection; experiment: Induction of Lux-A Collection gene fusions by MMC (and yebF fusion by nalidixic acid); format: cell-based, E. coli
# Protocol: The Lux-A Collection of reporter gene fusions was examined for presence of fusions to the genes in Table 11. […] Each of these was tested for induction by MMC at several doses over a time course of 100 minutes.
# As expected, the expression of the known SOS genes was elevated; however the expression of several was elevated less than 2-fold (Table 12) and as such were within a large group of 792 genes the expression of which was elevated by 20% or more. Most of these are likely due to artifacts in the array data rather than to actual biologically relevant responses. To test if strains carrying luxCDABE gene fusions would yield the expected positive result, the three gene fusions that were available in the Lux-A Collection of reporter gene fusions were tested for mitomycin C responses.
# In this case, a divergent promoter to the purT gene was present in the chromosomal fragment and strains containing the backward yebF fusion produced light. […] […] The orientation of the inserted segment to yield a fusion of yebF to the luxCDABE operon was confirmed by DNA sequence analysis.
# [6] = tested on: luxCDABE gene fusions in lexA+ host; experiment: Mitomycin C and nalidixic acid responses in lexA+ host; format: cell-based, E. coli; conditions: for MitC Ratio, 2 hr 250 ng/ml: lexA+ host
# Protocol: (§2) In addition, the effect of a lexAind mutation was tested to determine if any of these were part of the SOS regulon. The expectation is that SOS regulon member will be induced by both nalidixic acid and mitomycin C in a manner that is dependent on lexA function (Walker, G. C., (1996) Escherichia coli and Salmonella: Cellular and Molecular Biology ASM Press). […] This is consistent with the observation of upregulation of the b1728 mRNA transcript upon mitomycin C treatment in a LexA dependent fashion (Fernández de Henestrosa et al. (2000). Mol. Microbiol. 35:1560-1572). Likewise, two Gene fusions, those to oraA and yigN were identified is new members of the SOS regulon (Table 16). […] Negative, non-DNA damage responsive gene fusions were also included (Table 16).
# [7] = tested on: luxCDABE gene fusions in lexAind host; experiment: Mitomycin C and nalidixic acid responses in lexAind host; format: cell-based, E. coli; conditions: for MitC Ratio, 2 hr 250 ng/ml: lexAind host
# Protocol: as §2
# [8] = tested on: SoxR/S regulon gene fusions; experiment: Stress response of SoxR/S regulon luxCDABE gene fusions (methyl viologen); format: cell-based, E. coli; conditions: for Methyl viologen response ratio: 250 μg/ml, 120 minutes, LB, treated/untreated
# Protocol: Like the SOS and heat shock regulon fusions, these had basal light production greater than the promoterless parental plasmid indicating the presence of a promoter. Responsiveness of four of these strains to a known inducer of the SoxR/S regulon, methyl viologen, was tested at 1000, 500, 250, 125, 62, 31 and 16 μg/ml. […] Table 8 gives the response ratio for 250 μg/ml at 120 minutes of treatment for the four tested strains. Here again, the biologically appropriate response was observed.
# [9] = lux-a.pk054.c3 (DPD2243), clpB fusion
# [10] = 1pxA 1pxB rnhB dnaE fusion (lux-a.pk061.c3)
# [11] = dinG ybiB fusion (lux-a.pk0024.f5)
# [12] = lacZ fusion (65.d4), negative control
# [13] = yciG fusion (lux-a.pk006.b4), negative control
smiles,measurement,setting,value
"OO [H2O2, hydrogen peroxide]",H2O2 response ratio,[1]; DPD2283 (lux-a.pk051.d5),1.3
same,H2O2 response ratio,[1]; DPD2284 (lux-a.pk051.e3),1.6
same,H2O2 response ratio,[1]; DPD2285 (lux-a.pk03.d6),1.2
same,induction of bioluminescence,"[1]; three ahpC-luxCDABE strains, 0.016-0.00025% hydrogen peroxide",minimally induced
same,induction of bioluminescence,"[2]; both ahpC-luxCDABE strains in pcnB- host, each of seven conc 0.004-0.00006%",dramatically induced increased bioluminescence
same,H2O2 response ratio in pcnB- host,[2]; plasmid of DPD2283 (lux-a.pk051.d5) in DPD2228,16.5
same,H2O2 response ratio in pcnB- host,[2]; plasmid of DPD2284 (lux-a.pk051.e3) in DPD2228,15.3
"CCO [Ethanol, ethanol]",3% Ethanol Response ratio,"[3]; clpB fusion, DPD2243 (lux-a.pk054.c3)",4.7
same,bioluminescence compared with untreated culture,"[3]; each of the six heat shock fusion strains, at least two of 5, 4, 3, 2 (v/v)% ethanol",increased bioluminescence
same,3% Ethanol Response ratio,"[3]; grpE fusion, DPD2241 (lux-a.pk057.h1)",5.2
same,3% Ethanol Response ratio,"[3]; lon fusion, DPD2242 (lux-a.pk021.g11)",5.6
same,3% Ethanol Response ratio,"[3]; rfaDFCL fusion, DPD2244 (lux-a.pk040.e4)",1.4
same,3% Ethanol Response ratio,"[3]; rpoD fusion, DPD2246 (lux-a.pk089.e7)",2.4
same,bioluminescence of SOS regulon gene fusions (specificity),SOS regulon gene fusions,little to no increased biolumninescence
same,Response Ratio,[4]; Inverted lux-a.pk043.d3 (two transformants),6.5 and 5.5
same,Light production in LB + 4% ethanol,[4]; lux-a.pk043.d3 (clpB promoter not operably linked),0.0025 RLU
same,Response Ratio,[4]; [9],9.4
same,Light production in LB + 4% ethanol,[4]; [9],13.00 RLU
"CO[C@@]12[C@H](COC(N)=O)C3=C(C(=O)C(C)=C(N)C3=O)N1C[C@@H]1N[C@@H]12 [MMC, mitomycin C]",Induction of Fusion,"[5]; b1847 (yebF)-luxCDABE fusion (when inverted), MMC",YES
same,Induction of Fusion,"[5]; b1847 (yebF)-luxCDABE fusion (when inverted), MMC, listed as mitomycin C",induction by mitomycin C was demonstrated
same,Induction of Fusion,"[5]; dinB (dinP)-luxCDABE fusion, several doses of MMC, time course of 100 minutes",YES
same,Induction of Fusion,"[5]; dinF-luxCDABE fusion, MMC",YES
same,Induction of Fusion,"[5]; dinG-luxCDABE fusion, MMC",YES
same,Induction of Fusion,"[5]; recA-luxCDABE fusion, several doses of MMC, time course of 100 minutes",YES
same,Induction of Fusion,"[5]; ruvA-luxCDABE fusion, several doses of MMC, time course of 100 minutes",YES
same,Induction of Fusion,"[5]; uvrA-luxCDABE fusion, several doses of MMC, time course of 100 minutes",YES
same,Induction of Fusion,"[5]; uvrD-luxCDABE fusion, MMC",YES
same,"MitC Ratio, 2 hr 250 ng/ml",[6]; [10],1.06
same,"MitC Ratio, 2 hr 250 ng/ml",[6]; b1728 fusion (lux-a.pk033.c5),8.97
same,"MitC Ratio, 2 hr 250 ng/ml",[6]; b1936 fusion (lux-a.pk0019.g1),1.22
same,"MitC Ratio, 2 hr 250 ng/ml",[6]; [11],5.01
same,"MitC Ratio, 2 hr 250 ng/ml",[6]; fusion (lux-a.pk0015.d6),1.12
same,"MitC Ratio, 2 hr 250 ng/ml",[6]; [12],0.80
same,induction of b1728 promoter-luxCDABE fusion,[6]; lexA+ host (FIG. 9),clearly induced
same,"MitC Ratio, 2 hr 250 ng/ml",[6]; oraA fusion (lux-a.pk058.f5),15.27
same,"MitC Ratio, 2 hr 250 ng/ml",[6]; yaaF fusion (lux-a.pk031.e7),1.02
same,"MitC Ratio, 2 hr 250 ng/ml",[6]; [13],0.56
same,"MitC Ratio, 2 hr 250 ng/ml",[6]; yigN fusion (lux-a.pk046.f11),9.84
same,"MitC Ratio, 2 hr 250 ng/ml",[7]; [10],1.29
same,"MitC Ratio, 2 hr 250 ng/ml",[7]; b1728 fusion (lux-a.pk033.c5),0.90
same,"MitC Ratio, 2 hr 250 ng/ml",[7]; b1936 fusion (lux-a.pk0019.g1),2.46
same,"MitC Ratio, 2 hr 250 ng/ml",[7]; [11],1.15
same,"MitC Ratio, 2 hr 250 ng/ml",[7]; fusion (lux-a.pk0015.d6),1.73
same,"MitC Ratio, 2 hr 250 ng/ml",[7]; [12],1.24
same,induction of b1728 promoter-luxCDABE fusion,[7]; lexAind host strain (FIG. 9),not induced
same,"MitC Ratio, 2 hr 250 ng/ml",[7]; oraA fusion (lux-a.pk058.f5),1.21
same,"MitC Ratio, 2 hr 250 ng/ml",[7]; yaaF fusion (lux-a.pk031.e7),0.99
same,"MitC Ratio, 2 hr 250 ng/ml",[7]; [13],0.61
same,"MitC Ratio, 2 hr 250 ng/ml",[7]; yigN fusion (lux-a.pk046.f11),0.93
"C[n+]1ccc(-c2cc[n+](C)cc2)cc1 [Methyl viologen, methyl viologen]",bioluminescence compared with untreated culture,"[8]; each of four SoxR/S fusion strains, each of 1000, 500, 250, 125, 62, 31 and 16 μg/ml",induced increased bioluminescence
same,Methyl viologen response ratio,"[8]; inaA fusion, DPD2087 (lux-a.pk014.a9)",9.0
same,Methyl viologen response ratio,"[8]; poxB fusion, DPD3509 (lux-a.pk071.all)",15.0
same,Methyl viologen response ratio,"[8]; ribA fusion, DPD2286 (lux-a.pk078.d2)",4.7
same,Methyl viologen response ratio,"[8]; zwf fusion, DPD2272 (lux-a.pk082.g7)",3.6
